Results as given in publication PMC6017062, “Probing the Inhibitor versus Chaperone Properties of sp^2-Iminosugars towards Human β-Glucocerebrosidase: A Picomolar Chaperone for Gaucher Disease” (Molecules : A Journal of Synthetic Chemistry and Natural …, 2018).
Like-named read-outs stand apart in the source and are kept apart here.

Assays:
Assay type in all cases: biochemical
[1] = target: T1, amyloglucosidase (α-Glcase3) (Aspergillus niger, UniProt P69328); experiment: Commercial glycosidase inhibition: amyloglucosidase (α-Glcase3); conditions: mean ± SD, three determinations; competitive; n.i. = no inhibition detected at 1 mM
T1 construct: purchased
Excerpt: (§1) We first evaluated the inhibitory properties of the new nonreducing mono- and bicyclic sp^2-iminosugars 4–15 against a panel of commercial glycosidases that included the α-glucosidases maltase (yeast maltase; α-Glcase1) and isomaltase (α-Glcase2) from Saccharomyces cerevisiae and amyloglucosidase (α-Glcase3) from Aspergillus niger, the β-glucosidases from almonds (β-Glcase1) and bovine liver (β-Glcase2), the α-galactosidase from green coffee beans (α-Galase), the β-galactosidase from Escherichia coli (β-Galase), and the α-mannosidase from Jack bean (α-Manase).
(§2) Inhibition constant (Ki) values were determined by spectrophotometrically measuring the residual hydrolytic activities of the glycosidases against the respective o- (for β-galactosidase from E. coli) or p-nitrophenyl α- or β-D-glycopyranoside (for other glycosidases) in the presence of the iminosugars. Each assay was performed in phosphate buffer or phosphate-citrate buffer (for α- or β-mannosidase and amyloglucosidase) at the optimal pH for the enzymes. The reactions were initiated by addition of the enzyme to a solution of the substrate in the absence or presence of various inhibitor concentrations. The mixture was incubated for 10–30 min at 37 °C or 55 °C (for amyloglucosidase) and the reaction was quenched by addition of 1 M Na2CO3. Reaction times were appropriate to obtain 10–20% conversion of the substrate in order to achieve linear rates. The absorbance of the resulting mixture was determined at 405 nm. Approximate value of Ki was determined from the slope of Dixon plots using a fixed concentration of substrate (around the Km value for the different glycosidases) and various concentrations of inhibitor. Full Ki determinations and enzyme inhibition mode were determined from the slope of Lineweaver–Burk plots and double reciprocal analysis.

[2] = target: T2, α-glucosidase maltase (yeast maltase; α-Glcase1) (Saccharomyces cerevisiae, UniProt P53341); experiment: Commercial glycosidase inhibition: maltase (yeast maltase; α-Glcase1); conditions: three determinations, competitive, n.i. = no inhibition detected at 1 mM
T2 construct: purchased
Excerpt: as §1, §2

[3] = target: T3, α-mannosidase from Jack bean (α-Manase) (Canavalia ensiformis, UniProt C0HJB3); experiment: Commercial glycosidase inhibition: α-mannosidase from Jack bean (α-Manase); conditions: mean ± SD, three determinations; competitive; n.i. = no inhibition detected at 1 mM
T3 construct: purchased
T3 sequence (C0HJB3 1-981): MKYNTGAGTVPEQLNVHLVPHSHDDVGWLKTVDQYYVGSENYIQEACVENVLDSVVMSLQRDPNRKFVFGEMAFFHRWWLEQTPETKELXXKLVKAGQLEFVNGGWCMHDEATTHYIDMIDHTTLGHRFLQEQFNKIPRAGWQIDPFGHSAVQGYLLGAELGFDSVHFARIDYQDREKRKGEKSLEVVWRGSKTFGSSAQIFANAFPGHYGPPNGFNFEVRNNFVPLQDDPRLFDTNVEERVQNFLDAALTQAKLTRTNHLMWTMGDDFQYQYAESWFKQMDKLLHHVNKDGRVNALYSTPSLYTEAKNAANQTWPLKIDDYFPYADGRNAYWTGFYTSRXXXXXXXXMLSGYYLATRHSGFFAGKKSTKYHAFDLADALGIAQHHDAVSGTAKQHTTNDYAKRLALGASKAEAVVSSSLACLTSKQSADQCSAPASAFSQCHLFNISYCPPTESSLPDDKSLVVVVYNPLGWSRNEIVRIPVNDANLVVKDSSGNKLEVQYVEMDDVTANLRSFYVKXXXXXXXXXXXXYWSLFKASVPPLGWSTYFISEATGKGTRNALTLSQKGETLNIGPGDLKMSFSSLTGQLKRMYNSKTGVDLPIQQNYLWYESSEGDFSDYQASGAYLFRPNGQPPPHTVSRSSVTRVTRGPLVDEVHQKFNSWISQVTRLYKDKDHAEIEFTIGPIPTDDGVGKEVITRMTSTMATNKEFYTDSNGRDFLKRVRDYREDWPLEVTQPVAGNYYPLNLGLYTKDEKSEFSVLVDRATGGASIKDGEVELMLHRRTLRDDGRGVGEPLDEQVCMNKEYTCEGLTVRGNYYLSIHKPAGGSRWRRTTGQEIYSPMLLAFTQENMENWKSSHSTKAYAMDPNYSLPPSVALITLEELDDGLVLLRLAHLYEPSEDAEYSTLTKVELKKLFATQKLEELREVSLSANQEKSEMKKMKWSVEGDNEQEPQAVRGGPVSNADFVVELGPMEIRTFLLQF
Excerpt: as §1, §2

[4] = target: β-glucosidase from almonds (β-Glcase1); experiment: Commercial glycosidase inhibition: β-glucosidase from almonds (β-Glcase1); conditions: mean ± SD, three determinations; competitive; n.i. = no inhibition detected at 1 mM
Excerpt: as §1, §2

[5] = target: T4, β-galactosidase (β-Galase) (Escherichia coli, UniProt P00722); experiment: Commercial glycosidase inhibition: β-galactosidase from E. coli (β-Galase); conditions: mean ± SD, three determinations; competitive; n.i. = no inhibition detected at 1 mM
T4 construct: purchased
Excerpt: as §1, §2

[6] = target: T5, α-galactosidase from green coffee beans (α-Galase) (Coffea arabica, UniProt Q42656); experiment: Commercial glycosidase inhibition: α-galactosidase from green coffee beans (α-Galase); conditions: mean ± SD, three determinations; competitive; n.i. = no inhibition detected at 1 mM
T5 construct: purchased
Excerpt: as §1, §2

isomaltase (α-Glcase2) = target: T6, isomaltase (α-Glcase2) (Saccharomyces cerevisiae, UniProt P53051); experiment: Commercial glycosidase inhibition: isomaltase (α-Glcase2)
T6 construct: purchased
Excerpt: as §1, §2

[7] = mean ± SD, three determinations, competitive, n.i. = no inhibition detected at 1 mM
[8] = mean ± SD, three determinations, competitive, n.i. = no inhibition detected at 1 mM, read-out: Ki α-Glcase2
[9] = Dixon or Lineweaver-Burk plot, read-out: Ki against isomaltase (supplement figure legends)

T5 sequence (Q42656 16-378): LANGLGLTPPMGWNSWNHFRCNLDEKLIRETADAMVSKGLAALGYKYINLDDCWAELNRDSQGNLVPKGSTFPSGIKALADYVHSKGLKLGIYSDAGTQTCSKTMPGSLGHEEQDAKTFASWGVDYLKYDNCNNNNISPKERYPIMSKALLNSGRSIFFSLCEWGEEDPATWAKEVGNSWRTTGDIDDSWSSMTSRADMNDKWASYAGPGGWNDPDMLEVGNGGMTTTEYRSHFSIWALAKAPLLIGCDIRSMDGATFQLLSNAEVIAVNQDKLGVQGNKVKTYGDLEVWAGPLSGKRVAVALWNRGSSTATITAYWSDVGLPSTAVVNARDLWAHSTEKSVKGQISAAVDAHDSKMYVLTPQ
T2 sequence (P53341 whole entry): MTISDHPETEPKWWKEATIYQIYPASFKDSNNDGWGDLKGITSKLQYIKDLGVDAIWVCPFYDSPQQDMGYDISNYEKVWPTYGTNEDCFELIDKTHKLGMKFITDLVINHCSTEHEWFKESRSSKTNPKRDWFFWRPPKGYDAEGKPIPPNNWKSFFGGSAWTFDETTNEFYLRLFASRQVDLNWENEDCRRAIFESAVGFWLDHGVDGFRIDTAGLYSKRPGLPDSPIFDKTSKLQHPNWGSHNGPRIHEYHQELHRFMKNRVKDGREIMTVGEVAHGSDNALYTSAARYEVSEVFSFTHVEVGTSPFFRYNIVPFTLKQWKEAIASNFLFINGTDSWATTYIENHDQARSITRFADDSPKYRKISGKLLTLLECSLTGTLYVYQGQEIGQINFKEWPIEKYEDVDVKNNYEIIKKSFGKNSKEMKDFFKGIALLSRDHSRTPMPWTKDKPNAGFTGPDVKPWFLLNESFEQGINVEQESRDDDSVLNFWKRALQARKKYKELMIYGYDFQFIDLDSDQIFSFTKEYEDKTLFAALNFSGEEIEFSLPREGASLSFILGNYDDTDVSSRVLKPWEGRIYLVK
T1 sequence (P69328 25-640): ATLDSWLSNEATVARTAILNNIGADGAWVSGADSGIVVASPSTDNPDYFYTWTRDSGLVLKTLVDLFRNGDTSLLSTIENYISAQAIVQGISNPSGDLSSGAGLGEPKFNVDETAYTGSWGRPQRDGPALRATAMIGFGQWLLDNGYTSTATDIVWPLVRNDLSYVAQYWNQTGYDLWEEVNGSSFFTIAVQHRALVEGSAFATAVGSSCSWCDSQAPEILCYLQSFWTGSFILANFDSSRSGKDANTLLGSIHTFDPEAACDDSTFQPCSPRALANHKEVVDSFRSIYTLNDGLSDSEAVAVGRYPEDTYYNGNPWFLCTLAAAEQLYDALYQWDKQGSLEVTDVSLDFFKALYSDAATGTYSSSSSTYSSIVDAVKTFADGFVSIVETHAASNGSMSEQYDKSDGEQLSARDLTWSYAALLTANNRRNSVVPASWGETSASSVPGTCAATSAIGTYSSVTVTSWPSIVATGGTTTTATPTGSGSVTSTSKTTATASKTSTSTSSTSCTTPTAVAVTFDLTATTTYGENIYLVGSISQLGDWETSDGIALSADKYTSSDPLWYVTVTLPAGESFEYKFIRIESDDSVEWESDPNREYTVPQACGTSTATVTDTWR
T6 sequence (P53051 whole entry): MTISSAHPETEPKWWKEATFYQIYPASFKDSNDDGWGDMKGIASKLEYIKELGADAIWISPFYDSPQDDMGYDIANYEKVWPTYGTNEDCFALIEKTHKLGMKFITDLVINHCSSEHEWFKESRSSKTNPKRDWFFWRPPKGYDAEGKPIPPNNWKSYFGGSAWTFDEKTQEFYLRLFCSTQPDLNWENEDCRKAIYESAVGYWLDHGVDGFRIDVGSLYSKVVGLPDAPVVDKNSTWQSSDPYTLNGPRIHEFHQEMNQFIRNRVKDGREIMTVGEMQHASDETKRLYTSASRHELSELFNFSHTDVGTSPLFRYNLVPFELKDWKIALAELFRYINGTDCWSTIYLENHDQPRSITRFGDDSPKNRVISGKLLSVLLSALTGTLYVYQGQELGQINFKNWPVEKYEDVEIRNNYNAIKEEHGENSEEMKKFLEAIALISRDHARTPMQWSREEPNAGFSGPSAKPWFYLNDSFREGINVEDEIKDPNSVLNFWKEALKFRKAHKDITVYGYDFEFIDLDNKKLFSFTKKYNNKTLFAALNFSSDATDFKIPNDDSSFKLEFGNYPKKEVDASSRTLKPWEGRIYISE
T4 sequence (P00722 2-1024 limits assumed): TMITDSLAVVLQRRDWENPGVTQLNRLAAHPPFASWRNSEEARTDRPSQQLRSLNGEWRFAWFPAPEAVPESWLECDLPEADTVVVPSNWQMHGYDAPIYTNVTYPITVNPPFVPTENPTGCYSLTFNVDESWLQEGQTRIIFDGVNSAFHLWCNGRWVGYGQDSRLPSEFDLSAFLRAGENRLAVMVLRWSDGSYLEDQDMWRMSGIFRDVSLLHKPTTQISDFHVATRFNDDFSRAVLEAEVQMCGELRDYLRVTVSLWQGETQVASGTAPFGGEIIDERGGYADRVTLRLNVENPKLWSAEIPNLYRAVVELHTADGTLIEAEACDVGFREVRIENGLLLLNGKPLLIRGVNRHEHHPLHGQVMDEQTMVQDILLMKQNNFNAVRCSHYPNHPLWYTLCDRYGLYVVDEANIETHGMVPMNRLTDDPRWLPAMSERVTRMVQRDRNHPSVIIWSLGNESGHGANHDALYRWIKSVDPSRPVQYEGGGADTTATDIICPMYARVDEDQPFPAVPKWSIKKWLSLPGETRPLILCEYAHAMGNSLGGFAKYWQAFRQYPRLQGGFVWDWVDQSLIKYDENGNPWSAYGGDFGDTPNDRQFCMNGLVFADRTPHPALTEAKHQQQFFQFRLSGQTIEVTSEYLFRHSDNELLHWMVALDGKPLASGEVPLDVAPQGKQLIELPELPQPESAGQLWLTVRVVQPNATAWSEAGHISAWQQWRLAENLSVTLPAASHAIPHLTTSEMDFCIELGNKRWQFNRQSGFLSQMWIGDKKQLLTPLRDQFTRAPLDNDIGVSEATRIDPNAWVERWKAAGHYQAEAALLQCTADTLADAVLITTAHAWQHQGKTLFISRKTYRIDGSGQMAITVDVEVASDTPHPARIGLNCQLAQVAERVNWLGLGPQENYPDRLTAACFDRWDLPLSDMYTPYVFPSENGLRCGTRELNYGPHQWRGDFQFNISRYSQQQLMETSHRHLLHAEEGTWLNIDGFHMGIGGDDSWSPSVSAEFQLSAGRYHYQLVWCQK

SMILES	Ki α-Glcase3 [1]	Ki ([2]; Ki α-Glcase1, mean ± SD) [µM]	Ki α-Manase [3]	Ki [4] [µM]	Ki β-Galase [5]	Ki [6] [µM]	Ki α-Glcase2 (isomaltase (α-Glcase2); [7])	Ki [1] [µM]	Ki α-Galase [6]	Ki (isomaltase (α-Glcase2); [8]) [µM]	Ki [3] [µM]	Ki (isomaltase (α-Glcase2); [9]) [µM]	Ki α-Glcase1 ([2]; mean ± SD)	Ki ([2]; mean ± SD, read-out: Ki α-Glcase1) [µM]
OC1CN2C(=Nc3ccccc3)SCC2C(O)C1O [Compound 9, 5-N,6-S-(N′-Phenyliminomethylidene)-6-thio-1-deoxy-L-idonojirimycin]	n.i.	262 ± 15	n.i.	309 ± 19	n.i.	772 ± 35	n.i.							
CCCCCCCCNC(=S)N1C[C@H](O)[C@@H](O)[C@H](O)[C@H]1CO [Compound 10, 1-Deoxy-N-(N′-octylthiocarbamoyl)nojirimicin]		481 ± 27	n.i.	1.3 ± 0.1	n.i.			129 ± 10	n.i.	116 ± 8				
OC[C@@H]1[C@@H](O)[C@H](O)[C@@H](O)CN1C(=S)Nc1ccccc1 [Compound 12, 1-Deoxy-N-(N′-phenylthiocarbamoyl)nojirimicin]		60 ± 4		23 ± 3	n.i.	122 ± 9		18 ± 2		10 ± 1	294 ± 18	18 ± 2		
CCCCN=C1SCC2C(O)C(O)C(O)CN12 (stereo not drawn) [Compound 5, 1-Deoxy-6-thio-5-N,6-S-(N′-butyliminomethylidene)nojirimycin]	n.i.		n.i.	1.1 ± 0.1	n.i.		n.i.		n.i.				n.i.	
CCCCNC(=S)N1C[C@H](O)[C@@H](O)[C@H](O)[C@@H]1CO [Compound 14, N-(N′-Butylthiocarbamoyl)-1-deoxy-L-idonojirimycin]	n.i.		n.i.	51 ± 13	n.i.		n.i.		n.i.				n.i.	
CCCCCCCCNC(=S)N1C[C@H](O)[C@@H](O)[C@H](O)[C@@H]1CO [Compound 13, N-(N′-Octylthiocarbamoyl)-1-deoxy-L-idonojirimycin]	n.i.		n.i.	227 ± 13	n.i.	60 ± 15	n.i.						n.i.	
CCCCN=C1SCC2C(O)C(O)C(O)CN12 [Compound 8, 5-N,6-S-(N′-Butyliminomethylidene)-6-thio-1-deoxy-L-idonojirimycin]	n.i.		n.i.	19 ± 9	n.i.		n.i.		n.i.				n.i.	
OC1CN2C(=Nc3ccccc3)SCC2C(O)C1O (stereo not drawn) [Compound 6, 1-Deoxy-6-thio-5-N,6-S-(N′-phenyliminomethylidene)nojirimycin]		406 ± 20	n.i.	48 ± 4	n.i.		n.i.	44 ± 3	n.i.			44 ± 3		
CCCCNC(=S)N1C[C@H](O)[C@@H](O)[C@H](O)[C@H]1CO [Compound 11, 1-Deoxy-N-(N′-butylthiocarbamoyl)nojirimicin]			n.i.	20 ± 2	n.i.	847 ± 42		213 ± 18		121 ± 9				568 ± 30
CCCCCCCCN=C1SCC2C(O)C(O)C(O)CN12 [Compound 7, 5-N,6-S-(N′-Octyliminomethylidene)-6-thio-1-deoxy-L-idonojirimycin]	n.i.		n.i.	3.9 ± 0.3	n.i.	504 ± 32	n.i.						n.i.	
OC[C@H]1[C@@H](O)[C@H](O)[C@@H](O)CN1C(=S)Nc1ccccc1 [Compound 15, N-(N′-Phenylthiocarbamoyl)-1-deoxy-L-idonojirimycin]		293 ± 18	n.i.	294 ± 18	n.i.	77 ± 16		271 ± 17		443 ± 22				
